The target in series [1] is T1, Solute carrier organic anion transporter family member 1B3 (Homo sapiens, UniProt Q9NPD5).
T1 sequence (Q9NPD5 whole entry): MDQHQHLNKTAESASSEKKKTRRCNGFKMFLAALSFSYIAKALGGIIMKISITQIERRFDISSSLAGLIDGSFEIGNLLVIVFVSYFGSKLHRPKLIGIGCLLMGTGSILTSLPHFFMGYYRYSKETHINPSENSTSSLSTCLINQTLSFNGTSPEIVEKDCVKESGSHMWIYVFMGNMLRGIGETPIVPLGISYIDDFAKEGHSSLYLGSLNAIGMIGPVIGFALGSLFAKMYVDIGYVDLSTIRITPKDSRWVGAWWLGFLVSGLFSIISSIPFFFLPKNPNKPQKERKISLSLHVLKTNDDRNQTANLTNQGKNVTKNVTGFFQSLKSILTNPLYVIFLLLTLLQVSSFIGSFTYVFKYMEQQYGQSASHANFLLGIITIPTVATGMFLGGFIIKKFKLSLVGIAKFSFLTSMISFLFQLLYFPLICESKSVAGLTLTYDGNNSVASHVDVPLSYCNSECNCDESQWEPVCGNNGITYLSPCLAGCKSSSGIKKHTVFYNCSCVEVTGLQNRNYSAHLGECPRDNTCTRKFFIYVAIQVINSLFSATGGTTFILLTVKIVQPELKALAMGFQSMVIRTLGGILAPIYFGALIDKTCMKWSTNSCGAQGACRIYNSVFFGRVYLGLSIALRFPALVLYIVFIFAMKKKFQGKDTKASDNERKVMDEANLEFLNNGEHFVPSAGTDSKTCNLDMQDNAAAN
Put plainly: (§1) TP_TRANSPORTER: inhibition of UCB uptake (UCB: 10 uM) by Estradiol-17beta-D-glucuronide at a concentration of 100 u M in Xenopus laevis oocytes. Type of series: functional, cell-based. To be noted: oocyte, 100 µM.

The target in series [2] is T2, Solute carrier organic anion transporter family member 1A2 (Homo sapiens, UniProt P46721).
T2 sequence (P46721 whole entry): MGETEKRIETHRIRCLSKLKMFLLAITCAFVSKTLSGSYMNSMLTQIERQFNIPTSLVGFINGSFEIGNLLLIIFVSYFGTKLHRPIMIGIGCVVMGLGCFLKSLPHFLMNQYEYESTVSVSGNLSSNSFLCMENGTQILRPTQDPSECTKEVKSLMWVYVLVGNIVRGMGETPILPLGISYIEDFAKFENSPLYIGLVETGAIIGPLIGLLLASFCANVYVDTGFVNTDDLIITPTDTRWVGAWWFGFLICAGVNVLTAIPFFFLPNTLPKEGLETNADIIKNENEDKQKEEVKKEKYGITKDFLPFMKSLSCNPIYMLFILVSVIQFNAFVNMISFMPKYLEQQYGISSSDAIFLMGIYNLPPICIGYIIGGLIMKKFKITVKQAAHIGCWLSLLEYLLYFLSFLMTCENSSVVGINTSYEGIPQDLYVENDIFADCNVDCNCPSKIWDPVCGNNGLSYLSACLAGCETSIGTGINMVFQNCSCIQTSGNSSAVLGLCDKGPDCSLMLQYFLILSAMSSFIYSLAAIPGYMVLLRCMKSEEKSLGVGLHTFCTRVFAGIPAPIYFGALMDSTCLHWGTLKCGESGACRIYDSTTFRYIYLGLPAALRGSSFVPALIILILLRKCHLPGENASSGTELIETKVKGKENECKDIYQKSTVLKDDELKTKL
Described as §1. The note with it: oocyte, 100 µM. Type of series: functional, cell-based.

Series [3] addresses T3, Solute carrier organic anion transporter family member 1B1 (Homo sapiens, UniProt Q9Y6L6).
T3 sequence (Q9Y6L6 whole entry): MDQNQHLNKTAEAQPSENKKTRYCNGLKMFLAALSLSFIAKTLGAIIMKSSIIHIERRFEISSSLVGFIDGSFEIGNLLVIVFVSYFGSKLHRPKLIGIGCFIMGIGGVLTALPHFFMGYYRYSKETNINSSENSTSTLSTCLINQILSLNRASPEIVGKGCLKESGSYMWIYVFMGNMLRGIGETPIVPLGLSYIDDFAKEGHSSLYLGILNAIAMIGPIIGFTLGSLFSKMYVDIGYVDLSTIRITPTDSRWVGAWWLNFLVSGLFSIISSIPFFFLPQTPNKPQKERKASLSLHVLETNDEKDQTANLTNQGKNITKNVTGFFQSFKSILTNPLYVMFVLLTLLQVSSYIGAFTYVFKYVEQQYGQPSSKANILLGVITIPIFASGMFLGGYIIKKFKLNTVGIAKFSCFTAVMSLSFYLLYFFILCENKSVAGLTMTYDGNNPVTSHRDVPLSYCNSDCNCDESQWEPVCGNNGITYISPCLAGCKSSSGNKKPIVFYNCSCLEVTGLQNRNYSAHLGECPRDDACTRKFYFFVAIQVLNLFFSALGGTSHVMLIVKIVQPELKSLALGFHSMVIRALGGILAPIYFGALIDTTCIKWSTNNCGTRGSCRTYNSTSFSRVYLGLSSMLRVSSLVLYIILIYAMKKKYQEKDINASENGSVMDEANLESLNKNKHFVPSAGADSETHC
The series is described as §1. Type of series: functional, cell-based. The note with it: oocyte, 100 µM.

Series [4] has as its target T1, Solute carrier organic anion transporter family member 1B3. Put plainly: (§2) TP_TRANSPORTER: inhibition of E217betaG uptake (E217betaG: 10 uM) by Bilirubin at a concentration of 100 u M in Xenopus laevis oocytes. Type of series: functional, cell-based. To be noted: oocyte, 100 µM.
Series [5] has as its target T2, Solute carrier organic anion transporter family member 1A2. The series is described as §2. Type of series: functional, cell-based. The note with it: oocyte, 100 µM.
The target of series [6] is T3, Solute carrier organic anion transporter family member 1B1. The series is described as §2. To be noted: oocyte, 100 µM. Type of series: functional, cell-based.
Series [7] deals with T4, Solute carrier organic anion transporter family member 1B3 (OATP1B3) (Homo sapiens, UniProt Q9NPD5).
T4 sequence (Q9NPD5 whole entry): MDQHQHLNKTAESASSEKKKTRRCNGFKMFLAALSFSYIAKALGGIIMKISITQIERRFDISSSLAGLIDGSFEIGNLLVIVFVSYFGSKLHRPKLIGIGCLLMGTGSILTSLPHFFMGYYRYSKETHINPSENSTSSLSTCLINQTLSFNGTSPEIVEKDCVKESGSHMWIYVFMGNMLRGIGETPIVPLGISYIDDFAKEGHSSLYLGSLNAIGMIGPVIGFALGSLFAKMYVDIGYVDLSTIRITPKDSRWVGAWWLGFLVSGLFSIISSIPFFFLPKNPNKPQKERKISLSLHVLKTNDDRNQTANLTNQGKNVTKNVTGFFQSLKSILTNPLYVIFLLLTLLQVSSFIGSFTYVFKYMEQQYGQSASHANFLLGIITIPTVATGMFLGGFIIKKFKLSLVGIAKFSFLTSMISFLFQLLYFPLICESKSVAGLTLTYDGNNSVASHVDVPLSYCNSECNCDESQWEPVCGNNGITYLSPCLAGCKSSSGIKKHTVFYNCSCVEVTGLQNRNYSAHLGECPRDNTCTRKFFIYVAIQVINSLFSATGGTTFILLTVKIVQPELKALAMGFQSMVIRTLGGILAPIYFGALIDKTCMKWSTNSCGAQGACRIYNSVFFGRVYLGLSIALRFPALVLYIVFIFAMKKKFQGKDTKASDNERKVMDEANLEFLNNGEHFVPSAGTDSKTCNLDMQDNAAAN
Put plainly: (§3) TP_TRANSPORTER: uptake in Xenopus laevis oocytes. Type of series: functional, cell-based, Oocyte. The note with it: Xenopus laevis oocytes expressing OATP1B3 (SLCO1B3).

Substrate in series [8]: C=CC1=C(C)/C(=C/c2[nH]c(Cc3[nH]c(/C=C4\NC(=O)C(C)=C4C=C)c(C)c3CCC(=O)O)c(CCC(=O)O)c2C)NC1=O
Described as §3. Type of series: functional, cell-based, Oocyte.

Activity and Km data for three molecules are collected here from ChEMBL document CHEMBL2074503, “Role of organic anion-transporting polypeptides, OATP-A, OATP-C and OATP-8, in the human placenta-maternal liver tandem excretory pathway for foetal bilirubin” (Biochem J, 2003).

Take `C[C@]12CC[C@@H]3c4ccc(O)cc4CC[C@H]3[C@@H]1CC[C@@H]2O[C@@H]1O[C@H](C(=O)O)[C@@H](O)[C@H](O)[C@H]1O` [ESTRADIOL 17B GLUCURONIDE]: the Activity entry in series [1], in series [2] and in series [3] was “inhibitor [+]” throughout.

As to `C=CC1=C(C)/C(=C/c2[nH]c(Cc3[nH]c(/C=C4\NC(=O)C(C)=C4C=C)c(C)c3CCC(=O)O)c(CCC(=O)O)c2C)NC1=O` [BILIRUBIN], the Activity result in series [4], in series [5] and in series [6] was “inhibitor [+]” in each case. For the same molecule, the Michaelis constant (Km) in series [7] worked out at 39.1 nM.

B1: Solute carrier organic anion transporter family member 1B1 (Homo sapiens) (protein)
chain: MDQNQHLNKTAEAQPSENKKTRYCNGLKMFLAALSLSFIAKTLGAIIMKSSIIHIERRFEISSSLVGFIDGSFEIGNLLVIVFVSYFGSKLHRPKLIGIGCFIMGIGGVLTALPHFFMGYYRYSKETNINSSENSTSTLSTCLINQILSLNRASPEIVGKGCLKESGSYMWIYVFMGNMLRGIGETPIVPLGLSYIDDFAKEGHSSLYLGILNAIAMIGPIIGFTLGSLFSKMYVDIGYVDLSTIRITPTDSRWVGAWWLNFLVSGLFSIISSIPFFFLPQTPNKPQKERKASLSLHVLETNDEKDQTANLTNQGKNITKNVTGFFQSFKSILTNPLYVMFVLLTLLQVSSYIGAFTYVFKYVEQQYGQPSSKANILLGVITIPIFASGMFLGGYIIKKFKLNTVGIAKFSCFTAVMSLSFYLLYFFILCENKSVAGLTMTYDGNNPVTSHRDVPLSYCNSDCNCDESQWEPVCGNNGITYISPCLAGCKSSSGNKKPIVFYNCSCLEVTGLQNRNYSAHLGECPRDDACTRKFYFFVAIQVLNLFFSALGGTSHVMLIVKIVQPELKSLALGFHSMVIRALGGILAPIYFGALIDTTCIKWSTNNCGTRGSCRTYNSTSFSRVYLGLSSMLRVSSLVLYIILIYAMKKKYQEKDINASENGSVMDEANLESLNKNKHFVPSAGADSETHC
On to B1, for which, in series [8], the Michaelis constant (Km) came out at 7.6 nM.
